In US20260308149A1, “NOVEL CARBOXAMIDE DERIVATIVES” (ANGELINI PHARMA S.P.A., priority 2023, published 2026):

Each compound was assayed against T1, human Kv7.2 (Homo sapiens, UniProt O43526) (assay: activation (potentiation) of Kv7.2 current, SyncroPatch 384 electrophysiology in CHO cells stably expressing human Kv7.2). Conditions: human Kv7.2 in CHO cells; in presence of 5.6 μM zinc pyrithione; % activation relative to 30 μM ML-213.
T1 construct: expressed in transfected cells
Type: cell-based
Description: The potency of Kv7 potentiators was determined using the SyncroPatch 384 (Nanion) high throughput electrophysiology platform.
CHO cells stably expressing either human Kv7.2, Kv7.4 or Kv7.5/7.3 under a constitutive CMV promoter were used for these studies. Cells were maintained in F12 Hams+1 mM L-glutamine (Hyclone) supplemented with 10% FBS (Sigma), 0.3×NEAA (Non-essential Gamino-acids) and 400 ug/ml G418 at 37° C. in 5% CO2. Cells were cultured in T-225 flasks (Nunc) for 2-3 days to reach 85-95% confluence prior to electrophysiological recording.
Earle's balanced salt solution (in mM): 135 NaCl, 5.4 KCl, 5 Glucose, 2 CaCl2), 1 MgCl2, 5 HEPES, pH 7.4. Seal enhancer solution (in mM): 90 NaCl, 3 KCl, 35 CaCl2), 10 MgCl2, 10 HEPES, pH 7.4. Extracellular recording solution (in mM): 71 NaCl, 70 NMDG, 13 KCl. 5 Glucose, 2 CaCl2, 1 MgCl2, 10 HEPES, pH 7.4. Intracellular recording solution (in mM): 130 KF, 20 KCl, 4 EGTA, 10 HEPES, 2 EDTA, 0.01 Escin, pH 7.2.
Cells were harvested for electrophysiological recording upon reaching appropriate confluence. Cells were first washed in DPBS (Hyclone, Cat #SH30028.03) and then 2 ml of Accutase (MP Biomedicals #1000449) was added at 28° C. until ~90% of cells were suspended. F12 HAM's media+1 mM L-glutamine (Hyclone, SH30026.02) was then added to the flask to dilute the accutase. Cells were then triturated until a single cell suspension was achieved, a cell count was performed, and cells were centrifuged for 2 min. at 1,000 rpm. Media was then aspirated, and cells were resuspended in Earle's balanced salt solution to a concentration of 0.75×10^6 cells/ml and allowed to recover for 25 min at 10° C.
At the beginning of each assay, 20 μl of cell suspension was dispensed into each well of a multi-hole 384-well SyncroPatch chip by the onboard pipettor. Cell sealing was initiated, and seal enhancer solution was added to facilitate seal formation. Upon completion of sealing, cells were washed 3 times with extracellular recording solution and the assay voltage protocol was started. Human Kv7.2, Kv7.4 or Kv7.5/7.3 channels were evaluated using a voltage protocol in which cells were voltage-clamped at a holding potential of −60 mV. Potassium currents were continuously activated with a series of three voltage steps to −30 mV for 3 seconds, 40 mV for 1 second and −90 mV for 4 seconds with 12 seconds between successive voltage sweeps. Potassium currents were measured from the −90 mV repolarizing step. Baseline current was assessed for 3.5 minutes prior to the addition of 5.6 μM zinc pyrithione (1 μM for Kv7.4). Kv7.2, Kv7.4 or Kv7.5/7.3 current in the presence of zinc pyrithione was acquired over five minutes to allow channels to reach steady state activity prior to addition of test agents. Channel activity was monitored for three minutes preceding the addition of 30 μM ML-213 (3 minutes) to achieve maximum activation. 150 mM TEA with 10 μM XE-991 was applied for 2 minutes to measure the leak current during maximum inhibition of Kv7.2, Kv7.4 or Kv7.5/7.3 channels.
Data were collected on the SyncroPatch platform using PatchControl software (Nanion) and processed and analyzed using DataControl Software (Nanion). Percent activation was calculated from potassium current as follows: The average current for the 5 sweeps in the presence of zinc pyrithione immediately preceding test agent addition was taken as the ‘control’ data. Likewise, the average potassium current in the presence of test agents 5 sweeps immediately preceding addition of 30 μM ML-213 was determined for ‘drug’ data. The average potassium current 5 sweeps immediately prior to addition of 150 mM TEA+10 μM XE-991 was determined for ‘max activation’ data while average currents from 5 sweeps immediately following addition of TEA was determined for ‘max inhibition’ data. Percent activation for each of the 384-wells of a sealchip was calculated as ((‘drug’−‘max inhibition’)/(‘max activation’−‘max inhibition’))*100 with Pipeline Pilot (Accelrys). […]

T1 sequence (O43526 whole entry): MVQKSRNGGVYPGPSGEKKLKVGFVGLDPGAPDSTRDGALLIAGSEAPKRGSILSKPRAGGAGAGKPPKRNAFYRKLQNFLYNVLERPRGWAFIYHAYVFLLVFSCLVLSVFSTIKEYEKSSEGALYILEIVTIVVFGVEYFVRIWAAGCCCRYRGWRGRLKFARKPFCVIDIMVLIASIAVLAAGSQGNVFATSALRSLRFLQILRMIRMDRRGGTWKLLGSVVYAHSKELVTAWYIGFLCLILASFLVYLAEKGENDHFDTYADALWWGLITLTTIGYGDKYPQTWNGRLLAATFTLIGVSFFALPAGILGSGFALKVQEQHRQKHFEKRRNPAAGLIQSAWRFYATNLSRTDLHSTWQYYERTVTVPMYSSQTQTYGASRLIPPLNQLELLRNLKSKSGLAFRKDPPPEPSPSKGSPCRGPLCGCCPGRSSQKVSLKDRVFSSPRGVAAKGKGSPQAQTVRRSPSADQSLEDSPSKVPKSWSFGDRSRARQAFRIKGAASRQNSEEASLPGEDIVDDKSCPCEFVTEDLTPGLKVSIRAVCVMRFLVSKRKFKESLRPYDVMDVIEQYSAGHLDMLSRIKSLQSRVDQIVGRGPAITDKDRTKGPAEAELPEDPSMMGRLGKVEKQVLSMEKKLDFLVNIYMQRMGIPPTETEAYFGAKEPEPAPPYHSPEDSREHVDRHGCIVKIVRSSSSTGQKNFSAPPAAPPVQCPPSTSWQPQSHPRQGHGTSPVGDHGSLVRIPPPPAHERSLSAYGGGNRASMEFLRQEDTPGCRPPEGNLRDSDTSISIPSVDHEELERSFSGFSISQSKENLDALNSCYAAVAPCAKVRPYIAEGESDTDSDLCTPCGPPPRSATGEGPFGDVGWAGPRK

Row | EC50 [nM] | Compound
1 | 530 | COC(C)(CNC(=O)NCC1CCCC1)c1cccc(Cl)c1 (single isomer, unassigned) [Example 71]
2 | 50 | O=C(NC[C@@]1(c2cccc(Cl)c2)OCC1(F)F)[C@H]1C[C@@H]1c1ccccc1 (stereo in doubt) [Example 41, (1S,2S)-N-[[(2R)-2-(3-chlorophenyl)-3,3-difluoro-oxetan-2-yl]methyl]-2-phenyl-cyclopropanecarboxamide]
3 | 630 | O=C(NC[C@]1(c2cccc(Cl)c2)OCC1(F)F)[C@H]1C[C@@H]1c1ccccc1 (stereo in doubt) [Example 42, (1S,2S)-N-[[(2S)-2-(3-chlorophenyl)-3,3-difluoro-oxetan-2-yl]methyl]-2-phenyl-cyclopropanecarboxamide]
4 | 390 | O=C(NCC1(c2ccnc(OC(F)F)c2)CCO1)[C@H]1CC12CCCCC2 (stereo in doubt) [Example 122, N-[[2-[2-(difluoromethoxy)-4-pyridyl]oxetan-2-yl]methyl]spiro[2.5]octane-2-carboxamide]
5 | 60 | CO[C@@](C)(CNC(=O)[C@H]1C[C@@H]1c1ccccc1)c1cccc(Cl)c1 [Example 2, (1S,2S)-N-[(2R)-2-(3-chlorophenyl)-2-methoxy-propyl]-2-phenyl-cyclopropanecarboxamide]
6 | 2340 | COC(C)(CNC(=O)NC1CCCC1)c1cccc(Cl)c1 (centres unmarked) [Example 3, 1-[2-(3-chlorophenyl)-2-methoxy-propyl]-3-cyclopentyl-urea]
7 | 500 | COC(CNC(=O)NC1CC2CCC1C2)c1cccc(Cl)c1 (centres unmarked) [Example 4, 1-[2-(3-chlorophenyl)-2-methoxy-ethyl]-3-norbornan-2-yl-urea]
8 | 1040 | COc1cccc(NC(=O)NCC(C)(OC)c2cccc(Cl)c2)c1 (centres unmarked) [Example 5, 1-[2-(3-chlorophenyl)-2-methoxy-propyl]-3-(3-methoxyphenyl)urea]
9 | 2410 | COC(C)(CNC(=O)Nc1cccc(C)c1)c1cccc(Cl)c1 (centres unmarked) [Example 6, 1-[2-(3-chlorophenyl)-2-methoxy-propyl]-3-(m-tolyl)urea]
10 | 2720 | O=C(NCC1(c2cccc(Cl)c2)CC1)NC1CCCC1 [Example 7, 1-[[1-(3-chlorophenyl)cyclopropyl]meth-yl]-3-cyclopentyl-urea]
11 | 3650 | CCCCNC(=O)NCC(C)(OC)c1cccc(Cl)c1 (centres unmarked) [Example 8, 1-butyl-3-[2-(3-chlorophenyl)-2-methoxy-propyl]urea]
12 | 2460 | COC(C)(CNC(=O)NCc1ccco1)c1cccc(Cl)c1 (centres unmarked) [Example 9, 1-[2-(3-chlorophenyl)-2-methoxy-propyl]-3-(2-furylmethyl)urea]
13 | 760 | COC(C)(CNC(=O)NCc1cccc(F)c1)c1cccc(Cl)c1 (centres unmarked) [Example 10, 1-[2-(3-chlorophenyl)-2-methoxy-propyl]-3-[(3-fluorophenyl)methyl]urea]
14 | 1430 | COC(C)(CNC(=O)NCc1cccc(C)c1)c1cccc(Cl)c1 (centres unmarked) [Example 11, 1-[2-(3-chlorophenyl)-2-methoxy-propyl]-3-(m-tolylmethyl)urea]
15 | 2920 | O=C(NCC1(c2cccc(Cl)c2)CC1)NC1COC2(CCCC2)C1 (centres unmarked) [Example 12, 1-[[1-(3-chlorophenyl)cyclopropyl]meth-yl]-3-(1-oxaspiro[4.4]nonan-3-yl)urea]
16 | 3550 | COC(C)(CNC(=O)NC1COC2(CCCC2)C1)c1cccc(Cl)c1 (centres unmarked) [Example 13, 1-[2-(3-chlorophenyl)-2-methoxy-propyl]-3-(1-oxaspiro[4.4]nonan-3-yl)urea]
17 | 600 | CCOc1cccc(NC(=O)NCC(C)(OC)c2cccc(Cl)c2)c1 (centres unmarked) [Example 14, 1-[2-(3-chlorophenyl)-2-methoxy-propyl]-3-(3-ethoxyphenyl)urea]
18 | 6920 | O=C(NCC1CCCCO1)NCC1(c2cccc(Cl)c2)CC1 (centres unmarked) [Example 15, 1-[[1-(3-chlorophenyl)cyclopropyl]meth-yl]-3-(tetrahydropyran-2-ylmethyl)urea]

Row | EC50 [nM] | Compound
19 | 2870 | CO[C@@](C)(CNC(=O)NC1CCCC1)c1cccc(Cl)c1 [Example 16, 1-[(2R)-2-(3-chlorophenyl)-2-methoxy-propyl]-3-cyclopentyl-urea]
20 | 1670 | COc1cccc(NC(=O)NC[C@](C)(OC)c2cccc(Cl)c2)c1 [Example 17, 1-[(2R)-2-(3-chlorophenyl)-2-methoxy-propyl]-3-(3-methoxyphenyl)urea]
21 | 4580 | O=C(NCC(OC1CC1)c1cccc(Cl)c1)NC1CCCC1 (centres unmarked) [Example 18, 1-[2-(3-chlorophenyl)-2-(cyclopropoxy)ethyl]-3-cyclopentyl-urea]
22 | 620 | COC(C)(CNC(=O)CC1CCCCC1)c1cccc(Cl)c1 (centres unmarked) [Example 19, N-[2-(3-chlorophenyl)-2-methoxy-propyl]-2-cyclohexyl-acetamide]
23 | 550 | COC(C)(CNC(=O)NCC1CCCC1)c1cccc(Cl)c1 (centres unmarked) [Example 21, 1-[2-(3-chlorophenyl)-2-methoxy-propyl]-3-(cyclopentylmethyl)urea]
24 | 1990 | COC(CNC(=O)Nc1cccc(C)c1)c1cccc(Cl)c1 (centres unmarked) [Example 22, 1-[2-(3-chlorophenyl)-2-methoxy-ethyl]-3-(m-tolyl)urea]
25 | 8200 | COC(C)(CNC(=O)NCC1CC1)c1cccc(Cl)c1 (centres unmarked) [Example 23, 1-[2-(3-chlorophenyl)-2-methoxy-propyl]-3-(cyclopropylmethyl)urea]
26 | 2920 | CC(C)OC(CNC(=O)NC1CCCC1)c1cccc(Br)c1 (centres unmarked) [Example 24, 1-[2-(3-bromophenyl)-2-isopropoxy-ethyl]-3-cyclopentyl-urea]
27 | 4010 | [2H]C([2H])([2H])OC(C)(CNC(=O)NC1CCCC1)c1cccc(Cl)c1 (centres unmarked) [Example 26, 1-[2-(3-chlorophenyl)-2-(trideuteriomethoxy)propyl]-3-cyclopentyl-urea]
28 | 3270 | COc1cccc(NC(=O)NCC2(c3cccc(C)c3)OCCO2)c1 [Example 27, 1-(3-methoxyphenyl)-3-[[2-(m-tolyl)-1,3-dioxolan-2-yl]methyl]urea]
29 | 2580 | CCOC(CNC(=O)NC1CCCC1)c1cccc(Br)c1 (centres unmarked) [Example 28, 1-[2-(3-bromophenyl)-2-ethoxy-ethyl]-3-cyclopentyl-urea]
30 | 5690 | COC(C)(CNC(=O)Nc1cccc(OC(F)(F)F)c1)c1cccc(Cl)c1 (centres unmarked) [Example 29, 1-[2-(3-chlorophenyl)-2-methoxy-propyl]-3-[3-(trifluoromethoxy)phenyl]urea]
31 | 3270 | COC(C)(CNC(=O)NC1CC=CC1)c1cccc(Cl)c1 (centres unmarked) [Example 30, 1-[2-(3-chlorophenyl)-2-methoxy-propyl]-3-cyclopent-3-en-1-yl-urea]
32 | 1980 | COC(C)(CNC(=O)NCCCc1ccccc1)c1cccc(Cl)c1 (centres unmarked) [Example 32, 1-[2-(3-chlorophenyl)-2-methoxy-propyl]-3-(3-phenylpropyl)urea]
33 | 1860 | COC(C)(CNC(=O)NCc1cccs1)c1cccc(Cl)c1 (centres unmarked) [Example 33, 1-[2-(3-chlorophenyl)-2-methoxy-propyl]-3-(2-thienylmethyl)urea]
34 | 3940 | COc1ccc(CCNC(=O)NCC(C)(OC)c2cccc(Cl)c2)cc1 (centres unmarked) [Example 34, 1-[2-(3-chlorophenyl)-2-methoxy-propyl]-3-[2-(4-methoxyphenyl)ethyl]urea]
35 | 1580 | COC(CNC(=O)Cc1cccc2ccccc12)c1ccccc1Cl (centres unmarked) [Example 36, N-[2-(2-chlorophenyl)-2-methoxy-ethyl]-2-(1-naphthyl)acetamide]
